Data on four compounds can be found in patent US20090042898A1, “USE OF COMPOUNDS ACTIVE ON THE SIGMA RECEPTOR FOR THE TREATMENT OF MECANICAL ALLODYNIA” (priority 2004, published 2009).

In assay [1] the test system is capsaicin-induced allodynia. In words: Von Frey model, capsaicin-induced mechanical allodynia. It is filed as in vivo, mice. From the text:
The von Frey model is a model for allodynia, stimulated mechanically (mechanical allodynia).
Interest of the model: • The injection of capsaicin to experimental animals produces acute pain followed by allodynia • The mechanisms involved in capsaicin-induced acute pain and allodynia are relatively well known (mainly activation of peripheral nociceptors and sensitization of spinal cord neurons, respectively)
After habituation mice were according to FIG. 1 first treated with the test-compound (or not in controls). Then capsaicin (1% DMSO) is injected into their paw resulting in developing pain in the effected paw. The effected paw is then treated with a mechanical stimulus and the latency time before the paw is withdrawn is measured.
2 well known antisense Oligodesoxynucleotides (ODN) against the sigma 1 receptor (King et al. (1997) Eur J Pharmacol 331:R5-R6 and Ueda et al. (2001) J. Pharmacol. Exp. Ther. 298, 703-710) were synthesized and according to the protocol shown in FIG. 3a) given on 4 consecutive days i.c.v. followed by a wash-out period and von-Frey tests according to example 1.

In a further assay the test system is sigma receptor. The conditions noted are these: Sigma 1 and Sigma 2 for pentazocine; cited from earlier work.
Assay [2] has as its system mechanical allodynia in mice exposed to the sciatic nerve injury. The assay can be described thus: Von Frey model in mice exposed to sciatic nerve injury (partial sciatic nerve ligation). Type of assay: in vivo. The note with it: FIG. 5, 60 mg/kg subcutaneous, Day 11 after surgery, ipsilateral. As to the method: The partial sciatic nerve ligation model was used to induce neuropathic pain (Malmberg and Basbaum, Pain 76: 215-222, 1998). This model consists of injury to the sciatic nerve at mid-to high level. Briefly, mice were anaesthetized with halothane (induction: 3%; surgery: 1%) and the common sciatic nerve was exposed at the level of the mid-thigh of the right paw. In control animals (sham-operated mice), an identical dissection was performed on the right paw except that the sciatic nerve was not ligated (Control). Nociceptive sensitivity was then measured was quantified by measuring the hind paw withdrawal response to von Frey filament stimulation as mentioned above. Animals underwent surgery on day 0; 11 days after surgery BD-1063 was injected subcutaneously in one group and the responses to mechanical stimuli were determined by means of the von Frey model in this and the none-treated group (before surgery) a reference value was measured in order to determine a baseline value.

Turning to `CCCN(CCC)CCc1ccc(OC)c(OCCc2ccccc2)c1` [NE-100], the “analgesia in capsaicin-induced allodynia, dose dependency” value in assay [1] (FIG. 2a, mice, von Frey filaments) was “dose dependency of the treatment with NE-100 showing analgesia”. In assay [1] (FIG. 2b, NE-100 64 mg/kg), the “efficacy depending on the force of the von-Frey filaments (0.5 g allodynia vs 4 g general pain)” value was “effective specifically in allodynia or mechanical allodynia and not general pain”. Moreover, the “affinity to the sigma receptor” value in the assay on sigma receptor is on record as “high affinity”. Turning to `CN1CCN(CCc2ccc(Cl)c(Cl)c2)CC1` [BD-1063, 1-(3,4-dichlorophenethyl)-4-methylpiperazine], the “effect on mechanical allodynia, von Frey model” value in assay [2] is “antagonizes mechanical allodynia in mice exposed to the (ipsilateral) sciatic nerve injury significantly”.

In the case of `CC(C)=CCN1CCC2(C)c3cc(O)ccc3CC1C2C` (stereo not drawn) [pentazocine], the “affinity to the sigma receptor” value in the assay with sigma receptor is given as “very high affinity”.

Regarding `O=C(OCCN1CCOCC1)C1(c2ccccc2)CCCCC1` [PRE-084], the “effect of sigma receptor agonist on the effect of NE-100” value in assay [1] (FIG. 2c, given with NE-100) is “counteracting the effect of NE-100”.
